Results from ChEMBL document CHEMBL2440064, “Synthesis and biological evaluation of 2-amino-5-aryl-3-benzylthiopyridine scaffold based potent c-Met inhibitors” (Bioorg Med Chem, 2013).
Calls of active or inactive are those of the source. No cut-off for these calls is given here.

Tests used:
MDA-MB-231 = assay: Antiproliferative activity against human MDA-MB-231 cells after 72 hrs; settings: MDA-MB-231, 72 h
MKN-45 = assay: Antiproliferative activity against human MKN45 cells after 72 hrs; settings: MKN-45, 72 h
[1] = target: Hepatocyte growth factor receptor (Homo sapiens, UniProt P08581); assay: Inhibition of c-Met in human HCC827/GR5 cells assessed as potentiation of gefitinib-induced cell growth inhibition at 0.5 uM after 72 hrs; format: cell-based
Sequence of Hepatocyte growth factor receptor (P08581 whole entry): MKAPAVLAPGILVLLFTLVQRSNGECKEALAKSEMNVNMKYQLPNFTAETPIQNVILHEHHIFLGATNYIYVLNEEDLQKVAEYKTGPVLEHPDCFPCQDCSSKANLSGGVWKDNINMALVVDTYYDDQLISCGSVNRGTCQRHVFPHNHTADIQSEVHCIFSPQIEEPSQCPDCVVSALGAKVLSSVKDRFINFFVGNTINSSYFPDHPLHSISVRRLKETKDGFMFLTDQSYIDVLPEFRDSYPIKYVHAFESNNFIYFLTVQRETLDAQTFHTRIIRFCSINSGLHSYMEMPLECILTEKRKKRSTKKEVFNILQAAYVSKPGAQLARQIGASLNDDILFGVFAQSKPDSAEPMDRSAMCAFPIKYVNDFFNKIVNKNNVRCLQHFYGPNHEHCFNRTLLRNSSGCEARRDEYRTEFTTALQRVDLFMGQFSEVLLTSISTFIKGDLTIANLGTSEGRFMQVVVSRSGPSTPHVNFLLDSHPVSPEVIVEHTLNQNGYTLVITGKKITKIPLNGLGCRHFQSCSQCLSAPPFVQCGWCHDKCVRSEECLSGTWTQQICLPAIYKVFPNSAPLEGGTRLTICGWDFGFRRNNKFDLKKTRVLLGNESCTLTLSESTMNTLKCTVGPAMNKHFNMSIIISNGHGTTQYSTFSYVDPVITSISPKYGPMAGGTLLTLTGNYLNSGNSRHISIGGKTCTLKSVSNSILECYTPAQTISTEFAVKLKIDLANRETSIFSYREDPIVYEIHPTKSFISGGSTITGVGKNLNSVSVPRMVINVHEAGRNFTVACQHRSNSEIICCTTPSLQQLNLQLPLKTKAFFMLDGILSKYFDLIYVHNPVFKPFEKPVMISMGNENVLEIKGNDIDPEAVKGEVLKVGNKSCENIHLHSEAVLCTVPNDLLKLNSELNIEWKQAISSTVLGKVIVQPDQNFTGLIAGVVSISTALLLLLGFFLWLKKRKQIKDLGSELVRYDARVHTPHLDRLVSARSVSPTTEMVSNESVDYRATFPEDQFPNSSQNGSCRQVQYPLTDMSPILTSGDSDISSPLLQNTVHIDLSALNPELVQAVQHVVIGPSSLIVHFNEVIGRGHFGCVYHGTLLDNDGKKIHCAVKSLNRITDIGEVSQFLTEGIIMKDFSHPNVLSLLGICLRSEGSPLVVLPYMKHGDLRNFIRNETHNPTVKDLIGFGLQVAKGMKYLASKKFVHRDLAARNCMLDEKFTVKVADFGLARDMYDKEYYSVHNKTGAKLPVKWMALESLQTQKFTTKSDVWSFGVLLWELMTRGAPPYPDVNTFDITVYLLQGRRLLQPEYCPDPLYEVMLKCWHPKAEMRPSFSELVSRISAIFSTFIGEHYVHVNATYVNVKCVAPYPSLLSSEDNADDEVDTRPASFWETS

IC50 (MDA-MB-231): 12.1 µM
IC50 (MKN-45): 0.29 µM
inhibition [1]: Active
SMILES: C[C@@H](Sc1cc(-c2cnn(C3CCNCC3)c2)cnc1N)c1c(Cl)ccc(F)c1Cl
